Measurements reported in US4861889A, “3-(2,3,4,5,6-pentafluorophenoxy)-8-azabicyclo[3.2.1]octanes” (Hoechst-Roussel Pharmaceuticals, Inc., priority 1988, dated 1989).
Counter-ions that a name gives are not always drawn.

Key:
[1] = L-5-hydroxytryptophan (5-HTP) potentiation assay, antidepressant activity; type: in vivo, male Wistar rats; conditions: Rattus norvegicus, ip, read-out: 5-HTP Potentiation ED50
Protocol: The compounds of this invention are also useful as antidepressants by virtue of their ability to elicit an antidepressant response in mammals. Antidepressant activity is determined by the L-5-hydroxytryptophan potentiation assay in rats described in Brit. J. Pharmacol., 20, pp. 106-120 (1963) and J. Med. Chem., 24, 74 (1980).
Groups of six male Wistar rats (150-200 grams each) are used in this assay. Pursuant to this procedure pargyline hydrochloride is prepared and administered four hours before testing by subcutaneous injection at 75 mg/kg in 1% saline and at dosage volume of 1.0 ml/kg. Thirty minutes before testing, drugs are prepared and dosed using distilled water and, if insoluble, a suitable surfactant is added. Control groups receive vehicle. Drugs are routinely administered intraperitoneally at a dosage volume of 10 ml/kg. L-5-hydroxytryptophan (5-HTP) is prepared at 1.0 mg/kg in distilled water and is administered intraperioneally in volumes proportional to 10 ml/kg. Drugs are administered in a randomized manner and 15 minutes post 5-HTP treatment, the animals are observed for 15 minutes.
Potentiation is expressed as normalized percent potentiation relative to vehicle control.

[2] = phenyl-p-benzoquinone writhing assay (analgesic activity); type: in vivo, male mice (Charles River, CD-1); conditions: Mus musculus, sc, mice; for inhibition in vivo at 20 mg/kg: s.c., read-out: % Inhibition of writhing at a screening dose of 20 mg/kg, s.c.
Protocol: The compounds of this invention are useful as analgesic agents due to their ability to alleviate pain in mammals. The procedure employed to determine analgetic utility is a modification of the phenyl-p-benzoquinone writhing assay in mice, a standard assay for analgesia [Proc. Soc. Exptl. Bio. Med., 95, 729 (1957)]. Pursuant to the modified procedure phenyl-p-benzoquinone (Eastman, 12.5 mg) is dissolved in 5 ml of 95% ethanol and the solution is diluted to a total volume of 100 ml with distilled water. The solution is administered to the subject mice intraperitoneally at a dose of 10 ml per kg of body weight. A characteristic "writhe"an inward rotation of one or more feet with twisting and turning of the trunk, drawing in of the abdominal wall, lordosis and arching of the back, is produced.
A total of 28 male mice (Charles River, CD-1), weighing 18 to 30 grams, are employed for a time response. The subject animals receive food and water ad libitum. Test compounds are dissolved in distilled water, or suspended in distilled water containing one drop of a suitable surfactant, such as Tween-80.
Four groups of five animals (20 animals) are given the test compound subcutaneously (s.c.) or orally (p.o.) at 15, 30, 45 and 60 minutes prior to administration of the phenyl-p-quinone. A control group (2 animals per group) receive an equal volume of the vehicle. After the administration of the phenyl-p-quinone, the mice are place separately in one liter beakers, and after five minutes, are observed for ten minutes. The number of writhes for each animal is recorded. The following formula is used to compute the percent inhibition: [formula]
The time period with the greatest percent of inhibition is considered the peak time.

[3] = Metrazol lethality assay (MTZ), anticonvulsant activity; type: in vivo, male mice (Charles River, CD-1); conditions: Mus musculus, po, mice, protection against Metrazol lethality
Protocol: (§1) The compounds of this invention are also useful as anticonvulsants due to their anticonvulsant activity in mammals. Anticonvulsant activity is measured in male mice using the supramaximal electroshock (SES) assay described in Arch. Int. Pharmacodyn. 92, pp. 97-107, (1952) and the metrazol lethality assay (MTZ) described in J. Pharmacol. Exp. Ther., 81, 402 (1944).
Groups of male mice (Charles River, CD-1), weighing 18 to 30 grams are employed in the Metrazol lethality assay. Test compounds are dissolved in distilled water or if insoluble, suspended in water, to which a surfactant, such as Tween-80 is added. The test compounds are administered orally, the administered dose being dissolved or suspended in 10 ml of solution or suspension per kg of animal body weight. Control animals (2 mice/group) receive water or water and Tween-80, i.e., the vehicle for administration of the test compound. Metrazol (pentylenetetrazol) is dissolved in water (concentration 225 mg of Metrazol/10 ml of solution), and the solution is administered subcutaneously to groups of five animals each at one or more time intervals of 15, 30, 60, 90, or 120 minutes after administration of the test compound. The number of animal alive 15 minutes after treatment with Metrazol is determined and recorded. The following formula is employed to calculate the percent protection against Metrazol lethality. [formula] […]

[4] = antihypertensive activity, indirect tail cuff method (SHR); type: in vivo, spontaneous hypertensive rat; conditions: treated three days, drop measured on third day, decrease in mean arterial blood pressure
Protocol: The compounds of this invention are also useful as antihypertensive agents due to their ability to depress blood pressure in mammals. Antihypertensive activity is measured in the spontaneous hypertensive rat by the indirect tail cuff method described in "Methods in Pharmacology", A. Schwartz, Ed., Vol. I, Appleton-Century Crofts, New York, N.Y., 1971, p. 135. In this procedure a group of five animals is treated orally for three days with the test compound in relation to a control group of the same number. The drop in blood pressure is measured on the third day following administration. The antihypertensive activities of representative compounds, expressed as a decrease in mean arterial blood pressure (in mm Hg), are given in Table 3 along with the activity of a standard compound.

[5] = supramaximal electroshock (SES) assay, anticonvulsant activity; type: in vivo, male mice (Charles River, CD-1); conditions: Mus musculus, ip, mice
Protocol: as §1
Groups of male mice (Charles River, CD-1) weighing 18 to 30 g are employed in the SES assay. Test compounds are dissolved in distilled water, or if insoluble, suspended in water containing one drop of a surfactant, such as Tween-80. Test compounds are generally administered intraperitoneally at a dose of 10 ml of solution, or suspension, per kg of animal body weight. The output terminals of an A.C. shocker, which delivers 206 volts rms for 300 msec, are placed across the animals' eyes, an electrode paste coating assuring contact of the terminals with the eyes. The test compound is administered and thereafter the subject animals are shocked.
Protection is expressed as normalized percent inhibition relative to vehicle control. [formula] A time response is carried out using 6 animals per group. Animals are tested at 30, 60 and 120 minutes post drug. Additional time periods are tested if indicated by previous tests. A dose range determination is generally reserved for those compounds which inhibit convulsions by greater than about 45-55% at the screening dose employed at the time the test was performed. When the peak activity time has been determined, a dose response is initiated, using 10 animals per group at that time period.
The anticonvulsant activity of several of the compounds of this invention as per the SES and MTZ assay procedures is provided in Table 2.

CN(C)CCC=C1c2ccccc2CCc2ccccc21 [amitriptyline, reference compound]
ED50 ([1]; rats): 7.1 mg/kg

NC(=O)N1[C@@H]2CC[C@H]1C[C@H](Oc1c(F)c(F)c(F)c(F)c1F)C2 [(exo)-8-(aminocarbonyl)-3-(2,3,4,5,6-pentafluorophenoxy)-8-azabicyclo[3.2.1]octane]
inhibition in vivo at 20 mg/kg [2]: 32%

CN1[C@@H]2CC[C@H]1C[C@](Oc1c(F)c(F)c(F)c(F)c1F)(c1ccccc1)C2 [(endo)-3-(2,3,4,5,6-pentafluorophenoxy)-8-methyl-3-phenyl-8-azabicyclo[3.2.1]octane hydrochloride]
inhibition in vivo at 20 mg/kg [2]: 42%

CC(=O)N1[C@@H]2CC[C@H]1C[C@H](Oc1c(F)c(F)c(F)c(F)c1F)C2 [(exo)-8-acetyl-3-(2,3,4,5,6-pentafluorophenoxy)-8-azabicyclo[3.2.1]octane]
ED50 [3]: 41.9 mg/kg

Fc1c(F)c(F)c(O[C@H]2C[C@H]3CC[C@@H](C2)N3)c(F)c1F [(endo)-3-(2,3,4,5,6-pentafluorophenoxy)-8-azabicyclo[3.2.1]octane hydrochloride]
ED50 [1]: 15.6 mg/kg

Fc1c(F)c(F)c(O[C@@H]2C[C@H]3CC[C@@H](C2)N3)c(F)c1F [(exo)-3-(2,3,4,5,6-pentafluorophenoxy)-8-azabicyclo[3.2.1]octane]
ED50 [1]: 8.4 mg/kg

COc1ccccc1N1CCN(CCCN2[C@@H]3CC[C@H]2C[C@@H](Oc2c(F)c(F)c(F)c(F)c2F)C3)CC1 [(endo)-3-(2,3,4,5,6-pentafluorophenoxy)-8-[3-[4-(2-methoxyphenyl)piperazin-1-yl]propyl]-8-azabicyclo[3.2.1]octane]
inhibition in vivo at 20 mg/kg [2]: 55%

COc1cc2onc(CCCN3[C@@H]4CC[C@H]3C[C@@H](Oc3c(F)c(F)c(F)c(F)c3F)C4)c2cc1OC [(ENDO)-3-(2,3,4,5,6-PENTAFLUOROPHENOXY)-8-[(5,6-DIMETHOXY-1,2-BENZISOXAZOL- 3-YL)PROPYL]-8-AZABICYCLO[3.2.1]OCTANEHYDROCHLORIDE]
inhibition in vivo at 20 mg/kg [2]: 37% | ED50 [1]: 21.1 mg/kg

Fc1ccc2c(CCCN3[C@@H]4CC[C@H]3C[C@H](Oc3c(F)c(F)c(F)c(F)c3F)C4)noc2c1 [(EXO)-8-[3-(6-FLUORO-1,2-BENZISOXAZOL-3-YL)PROPYL]-3-(2,3,4,5,6-PENTAFLUOROPHENOXY)-8-AZABICYCLO[3.2.1]OCTANE HYDROCHLORIDE]
inhibition in vivo at 20 mg/kg [2]: 49% | mm dec. in BP at 50 mg/kg p.o. [4]: 48 mm

CC(=O)N1[C@@H]2CC[C@H]1C[C@@H](Oc1c(F)c(F)c(F)c(F)c1F)C2 [endo-8-acetyl-3-(2,3,4,5,6-pentafluorophenoxy)-8-azabicyclo[3.2.1]octane]
ED50 [5]: 35.1 mg/kg

NC(=O)N1[C@@H]2CC[C@H]1C[C@@H](Oc1c(F)c(F)c(F)c(F)c1F)C2 [(endo)-8-aminocarbonyl-3-(2,3,4,5,6-pentafluorophenoxy)-8-azabicyclo[3.2.1]octane]
inhibition in vivo at 20 mg/kg [2]: 38% | ED50 [3]: 12.7 mg/kg | ED50 [5]: 25.2 mg/kg

CCC1(c2ccccc2)C(=O)NC(=O)NC1=O [phenobarbital, reference compound]
ED50 [5]: 8.4 mg/kg

Cc1[nH]c2ccccc2c1CCCN1[C@@H]2CC[C@H]1C[C@H](Oc1c(F)c(F)c(F)c(F)c1F)C2 [(EXO)-3-(2,3,4,5,6-PENTAFLUOROPHENOXY)-8-[3-(2-METHYLINDOL-3-YL)PROPYL]-8-AZABICYCLO[3.2.1]OCTANE HYDROCHLORIDE]
inhibition in vivo at 20 mg/kg [2]: 42%

CN1[C@@H]2CC[C@H]1C[C@H](Oc1c(F)c(F)c(F)c(F)c1F)C2 [exo-3-(2,3,4,5,6-pentafluorophenoxy)-8-methyl-8-azabicyclo[3.2.1]octane hydrochloride]
inhibition in vivo at 20 mg/kg [2]: 43% | ED50 [1]: 13.4 mg/kg

N=C(N)NCCN1CCCCCCC1 [guanethidine, reference compound]
mm dec. in BP at 50 mg/kg p.o. [4]: 20 mm

CC(=O)Oc1ccccc1C(=O)O [Asprin, reference compound]
ED50 ([2]; column head s.c., read-out: ED50 (calculated dosage at which a 50% inhibition of writhing is achieved)): 32.8 mg/kg

Cc1[nH]c2ccccc2c1CCCN1[C@@H]2CC[C@H]1C[C@@H](Oc1c(F)c(F)c(F)c(F)c1F)C2 [(ENDO)-3-(2,3,4,5,6-PENTAFLUOROPHENOXY)-8-[3-(2-METHYLINDOL-3-YL)PROPYL]-8- AZABICYCLO[3.2.1]OCTANEHYDROCHLORIDE]
inhibition in vivo at 20 mg/kg [2]: 39%

CN1[C@@H]2CC[C@H]1C[C@@H](Oc1c(F)c(F)c(F)c(F)c1F)C2 [(endo)-3-(2,3,4,5,6-pentafluorophenoxy)-8-methyl-8-azabicyclo[3.2.1]octane]
ED50 [1]: 16.2 mg/kg

CP(C)(=O)CN1[C@@H]2CC[C@H]1C[C@@H](Oc1c(F)c(F)c(F)c(F)c1F)C2 [(endo)-3-(2,3,4,5,6-pentafluorophenoxy)-8-[(dimethylphosphinyl)methyl]-8-azabicyclo[3.2.1]octane]
ED50 [1]: 10.8 mg/kg

CN1[C@@H]2CC[C@H]1C[C@@H](Oc1c(F)c(F)c(F)c(F)c1F)C2 [endo-3-(2,3,4,5,6-pentafluorophenoxy)-8-methyl-8-azabicyclo[3.2.1]octane oxalate]
inhibition in vivo at 20 mg/kg [2]: 49%

CN(C)C(=O)N1[C@@H]2CC[C@H]1C[C@H](Oc1c(F)c(F)c(F)c(F)c1F)C2 [(exo)-3-(2,3,4,5,6-pentafluorophenoxy)-8-[(N,N-dimethylamino)carbonyl]-8-azabicyclo[3.2.1]octane]
inhibition in vivo at 20 mg/kg [2]: 39%

Fc1ccc2c(CCCN3[C@@H]4CC[C@H]3C[C@@H](Oc3c(F)c(F)c(F)c(F)c3F)C4)noc2c1 [(ENDO)-8-[3-(6-FLUORO-1,2-BENZISOXAZOL-3-YL)PROPYL]-3-(2,3,4,5,6-PENTAFLUOROPHENOXY)-8-AZABICYCLO[3.2.1OCTANE HYDROCHLORIDE]
inhibition in vivo at 20 mg/kg [2]: 45%
